Laboratory results taken from the NIST ThermoML archive (doi:10.1016/j.jct.2009.04.002).
Several values for one entry are separate records, joined by “and”; a condition that tells them apart may be missing. Identical values can stand only once.

Conditions: Liquid

CC(C)CCCCCCCOC(=O)c1ccccc1C(=O)OCCCCCCCC(C)C
Conditions | mass density, Vibrating tube method | viscosity, Falling or rolling sphere viscometry
333.15 K, 10000 kPa | 944.8 kg/m3 and 945.3 kg/m3 | –
333.15 K, 20000 kPa | 951 kg/m3 and 951.5 kg/m3 and 950.9 kg/m3 | 23.5 mPa·s and 22.4 mPa·s and 23.2 mPa·s
333.15 K, 30000 kPa | 956.7 kg/m3 and 957.1 kg/m3 and 956.6 kg/m3 | 28.2 mPa·s and 26.8 mPa·s and 27.8 mPa·s
333.15 K, 40000 kPa | 962.1 kg/m3 and 962.5 kg/m3 and 962 kg/m3 | 33.7 mPa·s and 31.9 mPa·s and 33.1 mPa·s
333.15 K, 50000 kPa | 967.2 kg/m3 and 967.6 kg/m3 and 967.1 kg/m3 | 40 mPa·s and 37.8 mPa·s and 39.3 mPa·s
333.15 K, 60000 kPa | 972.1 kg/m3 and 972.5 kg/m3 and 972 kg/m3 | 47.5 mPa·s and 44.5 mPa·s and 46.6 mPa·s
333.15 K, 70000 kPa | 976.7 kg/m3 and 977.1 kg/m3 and 976.6 kg/m3 | –
348.15 K, 100 kPa | 927.9 kg/m3 and 928.3 kg/m3 and 927.7 kg/m3 | –
348.15 K, 1000 kPa | 928.5 kg/m3 and 929 kg/m3 and 928.4 kg/m3 | –
348.15 K, 5000 kPa | 931.4 kg/m3 and 931.8 kg/m3 and 931.2 kg/m3 | –
348.15 K, 10000 kPa | 934.8 kg/m3 and 935.3 kg/m3 and 934.7 kg/m3 | –
348.15 K, 20000 kPa | 941.3 kg/m3 and 941.8 kg/m3 and 941.2 kg/m3 | –
348.15 K, 30000 kPa | 947.3 kg/m3 and 947.8 kg/m3 | –
348.15 K, 40000 kPa | 953 kg/m3 and 953.5 kg/m3 and 952.9 kg/m3 | –
348.15 K, 50000 kPa | 958.4 kg/m3 and 958.9 kg/m3 | –
348.15 K, 60000 kPa | 963.6 kg/m3 and 964 kg/m3 and 963.5 kg/m3 | –
348.15 K, 70000 kPa | 968.4 kg/m3 and 968.8 kg/m3 and 968.3 kg/m3 | –
353.15 K, 100 kPa | – | 8.42 mPa·s and 8.04 mPa·s and 8.35 mPa·s
353.15 K, 1000 kPa | – | 8.54 mPa·s and 8.16 mPa·s and 8.48 mPa·s
353.15 K, 5000 kPa | – | 9.14 mPa·s and 8.7 mPa·s and 9.06 mPa·s
353.15 K, 10000 kPa | – | 9.92 mPa·s and 9.43 mPa·s and 9.83 mPa·s
353.15 K, 20000 kPa | – | 11.7 mPa·s and 11 mPa·s and 11.5 mPa·s
353.15 K, 30000 kPa | – | 13.7 mPa·s and 12.9 mPa·s and 13.5 mPa·s
353.15 K, 40000 kPa | – | 16 mPa·s and 15.1 mPa·s and 15.8 mPa·s
353.15 K, 50000 kPa | – | 18.5 mPa·s and 17.5 mPa·s and 18.3 mPa·s
353.15 K, 60000 kPa | – | 21.5 mPa·s and 20.3 mPa·s and 21.2 mPa·s
373.15 K, 100 kPa | 909.5 kg/m3 and 910 kg/m3 and 909.4 kg/m3 | 5.05 mPa·s and 4.8 mPa·s and 5.09 mPa·s
373.15 K, 1000 kPa | 911 kg/m3 and 911.6 kg/m3 | 5.12 mPa·s and 4.87 mPa·s and 5.16 mPa·s
373.15 K, 5000 kPa | 914.3 kg/m3 and 914.8 kg/m3 and 914.2 kg/m3 | 5.44 mPa·s and 5.17 mPa·s and 5.47 mPa·s
373.15 K, 10000 kPa | 918.1 kg/m3 and 918.6 kg/m3 and 918 kg/m3 | 5.86 mPa·s and 5.57 mPa·s and 5.89 mPa·s
373.15 K, 20000 kPa | 925.3 kg/m3 and 925.9 kg/m3 and 925.2 kg/m3 | 6.79 mPa·s and 6.44 mPa·s and 6.8 mPa·s
373.15 K, 30000 kPa | 931.9 kg/m3 and 932.5 kg/m3 | 7.83 mPa·s and 7.42 mPa·s
373.15 K, 40000 kPa | 938.1 kg/m3 and 938.7 kg/m3 | 9 mPa·s and 8.52 mPa·s and 8.98 mPa·s
373.15 K, 50000 kPa | 943.9 kg/m3 and 944.6 kg/m3 and 944 kg/m3 | 10.3 mPa·s and 9.75 mPa·s
373.15 K, 60000 kPa | 949.5 kg/m3 and 950.1 kg/m3 | 11.7 mPa·s and 11.1 mPa·s
373.15 K, 70000 kPa | 954.7 kg/m3 and 955.2 kg/m3 and 954.6 kg/m3 | –
398.15 K, 100 kPa | 892.2 kg/m3 and 892.8 kg/m3 | –
398.15 K, 1000 kPa | 892.8 kg/m3 and 893.5 kg/m3 and 892.9 kg/m3 | –
398.15 K, 5000 kPa | 896.4 kg/m3 and 896.9 kg/m3 and 896.3 kg/m3 | –
398.15 K, 10000 kPa | 900.6 kg/m3 and 901.1 kg/m3 and 900.5 kg/m3 | –
398.15 K, 20000 kPa | 908.6 kg/m3 and 909.1 kg/m3 and 908.5 kg/m3 | –
398.15 K, 30000 kPa | 915.8 kg/m3 and 916.4 kg/m3 | –
398.15 K, 40000 kPa | 922.5 kg/m3 and 923.2 kg/m3 and 922.6 kg/m3 | –
398.15 K, 50000 kPa | 928.8 kg/m3 and 929.5 kg/m3 and 928.9 kg/m3 | –
398.15 K, 60000 kPa | 934.8 kg/m3 and 935.5 kg/m3 and 934.9 kg/m3 | –
398.15 K, 70000 kPa | 940.4 kg/m3 and 941 kg/m3 | –

Conditions | mass density, SVM3000 rotational viscometer | viscosity, Rotational Automated Viscometer
333.15 K | 938.7 kg/m3 and 938.3 kg/m3 | 15.79 mPa·s and 16.02 mPa·s and 15.97 mPa·s
338.15 K | 935.1 kg/m3 and 934.7 kg/m3 | 13.21 mPa·s and 13.4 mPa·s and 13.36 mPa·s
343.15 K | 931.6 kg/m3 and 931.1 kg/m3 | 11.18 mPa·s and 11.34 mPa·s and 11.31 mPa·s
348.15 K | 928 kg/m3 and 927.6 kg/m3 | 9.561 mPa·s and 9.696 mPa·s and 9.685 mPa·s
353.15 K | 924.4 kg/m3 and 924.1 kg/m3 | 8.257 mPa·s and 8.376 mPa·s and 8.37 mPa·s
358.15 K | 920.7 kg/m3 and 920.9 kg/m3 and 920.6 kg/m3 | 7.193 mPa·s and 7.3 mPa·s and 7.297 mPa·s
363.15 K | 917.2 kg/m3 and 917.4 kg/m3 and 917 kg/m3 | 6.329 mPa·s and 6.414 mPa·s and 6.412 mPa·s
368.15 K | 913.7 kg/m3 and 913.9 kg/m3 and 913.5 kg/m3 | 5.602 mPa·s and 5.677 mPa·s and 5.675 mPa·s
373.15 K | 910.3 kg/m3 and 910.5 kg/m3 and 910 kg/m3 | 4.989 mPa·s and 5.059 mPa·s and 5.057 mPa·s
